Assay results as given in article PMC8070648, “Simultaneous Visualization of ^161Tb- and ^177Lu-Labeled Somatostatin Analogues Using Dual-Isotope SPECT Imaging” (Pharmaceutics, 2021).

Key:
[1] = n-octanol/PBS distribution coefficient (logD), shake-flask method; assay type: physicochemical; conditions: PBS pH 7.4; average ± SD
Procedure: DOTA-[Tyr^3]-octreotide (DOTATOC) was kindly provided by ITM Medical Isotopes GmbH, Munich, Germany.
Figure S3. Graphs of bars representing the percentage of intact radiopeptide investigated at 1 h, 4 h, and 24 h after preparation and dilution in saline (10 MBq/250 μL). (A) Percentage of intact radiopeptide in solution in the absence of ascorbic acid; (B) Percentage of intact radiopeptide in solution in the presence of ascorbic acid.
S4. Determination of n‐Octanol/PBS Distribution Coefficients (LogD Values) Purpose: The n‐octanol/PBS distribution coefficients (logD values) were assessed for each radiopeptide in order to investigate their hydrophilicity and enable comparison of […]
DOTA‐LM3) were determined by a shake‐flask method, as previously reported. […] The logD values were calculated as the logarithm of the ratio of counts per minute (cpm) measured in the n‐octanol phase relative to the cpm measured in the PBS pH 7.4 phase. The experiments were performed three times with five replicates for each radiopeptide and the logD value was expressed as the average ± standard deviation (SD) of the values obtained in each experiment. […]
Methods: A potential blockade of the uptake of [161Tb]Tb‐DOTA‐LM3 into AR42J cells was determined in the presence of >1000‐fold excess unlabeled DOTANOC or DOTA‐LM3 relative to the radiopeptide using the same protocol as reported in the main article. […]

AR42J tumor-bearing mice = experiment: Biodistribution in AR42J tumor-bearing nude mice; assay type: in vivo; conditions: i.v. 5 MBq, 1 nmol/mouse
From the text: Five-week-old female CD-1 nude mice were purchased from Charles River Laboratories (Sulzfeld, Germany).

With `C[C@@H](O)[C@@H]1NC(=O)[C@H](CCCCN)NC(=O)[C@@H](Cc2c[nH]c3ccccc23)NC(=O)[C@H](Cc2ccc(O)cc2)NC(=O)[C@@H](NC(=O)[C@@H](Cc2ccccc2)NC(=O)CN2CCN(CC(=O)O)CCN(CC(=O)O)CCN(CC(=O)O)CC2)CSSC[C@@H](C(=O)N[C@H](CO)[C@@H](C)O)NC1=O` [[^161Tb]Tb-DOTATOC] [metal not drawn] the “logD value (n-octanol/PBS distribution coefficient)” value [1] was −3.3 ± 0.2.
With `C[C@@H](O)[C@@H]1NC(=O)[C@H](CCCCN)NC(=O)[C@@H](Cc2c[nH]c3ccccc23)NC(=O)[C@H](Cc2ccc(O)cc2)NC(=O)[C@@H](NC(=O)[C@@H](Cc2ccccc2)NC(=O)CN2CCN(CC(=O)O)CCN(CC(=O)O)CCN(CC(=O)O)CC2)CSSC[C@@H](C(=O)N[C@H](CO)[C@@H](C)O)NC1=O` [[^177Lu]Lu-DOTATOC] [metal not drawn, reference compound] the “logD value (n-octanol/PBS distribution coefficient)” value [1] was −3.1 ± 0.2, the “AR42J Tumor” value (AR42J tumor-bearing mice; 2 h p.i.) was 8.9 ± 1.5 % IA/g and the Adrenals (AR42J tumor-bearing mice; 2 h p.i.) was 0.28 ± 0.08 % IA/g. The Blood (AR42J tumor-bearing mice; 2 h p.i.) was ≤ 0.10 % IA/g, the Femur (AR42J tumor-bearing mice; 2 h p.i.) was ≤ 0.10 % IA/g and the Heart (AR42J tumor-bearing mice; 2 h p.i.) was ≤ 0.10 % IA/g. It also gave an Intestines (AR42J tumor-bearing mice; 2 h p.i.) of 0.20 ± 0.05 % IA/g, a Liver (AR42J tumor-bearing mice; 2 h p.i.) of 0.26 ± 0.07 % IA/g and a Lung (AR42J tumor-bearing mice; 2 h p.i.) of 0.37 ± 0.06 % IA/g. The Muscle (AR42J tumor-bearing mice; 2 h p.i.) was ≤ 0.10 % IA/g, the Pancreas (AR42J tumor-bearing mice; 2 h p.i.) was 0.80 ± 0.13 % IA/g and the Stomach (AR42J tumor-bearing mice; 2 h p.i.) was 0.65 ± 0.11 % IA/g. For the same molecule, the Blood (AR42J tumor-bearing mice; 24 h p.i.) was ≤ 0.10 % IA/g, the Femur (AR42J tumor-bearing mice; 24 h p.i.) was ≤ 0.10 % IA/g and the Heart (AR42J tumor-bearing mice; 24 h p.i.) was ≤ 0.10 % IA/g. For the same molecule, the Intestines (AR42J tumor-bearing mice; 24 h p.i.) was ≤ 0.10 % IA/g, the Kidneys (AR42J tumor-bearing mice; 24 h p.i.) was 5.9 ± 2.1 % IA/g and the Liver (AR42J tumor-bearing mice; 24 h p.i.) was 0.13 ± 0.02 % IA/g. The Muscle (AR42J tumor-bearing mice; 24 h p.i.) was ≤ 0.10 % IA/g, the Pancreas (AR42J tumor-bearing mice; 24 h p.i.) was 0.21 ± 0.04 % IA/g and the Spleen (AR42J tumor-bearing mice; 24 h p.i.) was ≤ 0.10 % IA/g.
